Experimental data: paper PMC2481421, “Gene expression response in target organ and whole blood varies as a function of target organ injury phenotype” (Genome Biology, 2008)
Values joined by “and” are separate entries in the source; they are usually repeats but may differ in a detail not shown here. Identical values can stand only once. “Also recorded” adds a separate entry of the source.

Key:
[1] = system: liver; experiment: Liver histopathology (H&E sections of left liver lobe, severity graded) after a single dose; settings: rat, single administration
Description: The animals were acclimated for 14 days and observed for absence of disease.
Doses were determined with pilot experiments. For each chemical, doses that elicited a sub-toxic ('low'), a moderately toxic ('medium') or a overtly toxic ('high') response 24 hours after treatment were selected. […] For each compound, control animal groups were treated with vehicle alone. All animals were fasted for 12-18 hours prior to exposure. Groups of four to six animals were dosed between 8:30 and 9:30 a.m.; thereafter, feed was provided ad libitum. After 6, 24 or 48 hours of treatment, animals were anesthetized by isoflurane anesthesia. Whole blood was collected via retro-orbital plexus for hematology and gene expression analysis. Serum was collected for clinical chemistry. The animals were euthanized while under anesthesia by cervical dislocation and necropsied within 4 minutes of sacrifice. The left liver lobe was promptly removed and two defined cross sections were placed in 10% neutral buffered formalin for subsequent histopathology.
The cross sections that were fixed by immersion in 10% neutral buffered formalin (see 'In-life studies' section above) were transferred to histology grade alcohol for 18-24 hours after necropsy. Tissues were then processed, embedded in paraffin, sectioned at 5 microns, and stained with hematoxylin and eosin. A pathologist completed the initial microscopic evaluation of each liver sample for a given compound. […] An independent pathology quality assessment review was performed by a second pathologist on the initial histopathological findings.

[2] = In-life observations: body weight, gross findings before and at necropsy; format: in vivo, Male Fischer 344/N rats; settings: individual animals
Description: Doses were determined with pilot experiments. […] Serum was collected for clinical chemistry.

[3] = 25 mg/kg, gavage, corn oil, 6 hours
[4] = 25 mg/kg, gavage, corn oil, 24 hours
[5] = 25 mg/kg, gavage, corn oil, 48 hours
[6] = 75 mg/kg, Gavage, Corn Oil, 48 hours
[7] = 75 mg/kg, gavage, corn oil, 6 hours
[8] = 75 mg/kg, gavage, corn oil, 24 hours
[9] = 250 mg/kg, Gavage, Corn Oil, 48 hours
[10] = 250 mg/kg, gavage, corn oil, 6 hours
[11] = 250 mg/kg, gavage, corn oil, 24 hours
[12] = Gavage, corn oil, 10 mg/kg, 6 hours
[13] = Gavage, corn oil, 10 mg/kg, 24 hours
[14] = Gavage, corn oil, 10 mg/kg, 48 hours
[15] = Gavage, corn oil, 30 mg/kg, 24 hours
[16] = Gavage, corn oil, 50 mg/kg, 6 hours
[17] = Gavage, corn oil, 50 mg/kg, 24 hours
[18] = Gavage, corn oil, 50 mg/kg, 48 hours
[19] = Gavage, corn oil, 300 mg/kg, 6 hours

Compound: Brc1ccccc1 [Bromobenzene]
- Primary site of livery injury [1]: Centrilobular
- Clin/Ob Prior to Necropsy [2, 3]: Normal
- Gross Findings [2, 3]: No Gross Findings
- Clin/Ob Prior to Necropsy [2, 4]: Normal
- Final Body Wt. [2, 4]: 249.50 g and 261.40 g and 229.00 g and 231.60 g
- Gross Findings [2, 4]: No Gross Findings
- Clin/Ob Prior to Necropsy [2, 5]: Normal
- Final Body Wt. [2, 5]: 244.40 g and 235.00 g and 246.60 g and 231.60 g
- Gross Findings [2, 5]: No Gross Findings
- Clin/Ob Prior to Necropsy [2, 6]: Normal
- Final Body Wt. [2, 6]: 236.60 g and 225.70 g and 236.40 g and 237.30 g
- Gross Findings [2, 6]: No Gross Findings
- Clin/Ob Prior to Necropsy [2, 7]: Normal
- Gross Findings [2, 7]: No Gross Findings; also recorded: Liver left lobe mottled
- Clin/Ob Prior to Necropsy [2, 8]: Normal
- Final Body Wt. [2, 8]: 242.50 g and 258.00 g and 249.00 g and 228.00 g
- Gross Findings [2, 8]: No Gross Findings
- Clin/Ob Prior to Necropsy [2, 9]: Normal
- Final Body Wt. [2, 9]: 203.70 g and 220.50 g and 212.60 g and 210.30 g
- Gross Findings [2, 9]: Liver left lobe firm with mottled edges, median lobe firm with mottled edges; also recorded: Liver left lobe mild roughening of surface, median lobe mild roughening of surface
- Clin/Ob Prior to Necropsy [2, 10]: Normal
- Gross Findings [2, 10]: No Gross Findings; also recorded: Liver left lobe and median lobe mottled
- Clin/Ob Prior to Necropsy [2, 11]: Ungroomed Appearance
- Final Body Wt. [2, 11]: 214.60 g and 204.50 g and 218.70 g and 200.70 g
- Gross Findings [2, 11]: Liver left lobe dark, mottled, and firm (anterior end darker), median lobe dark, mottled, and firm; also recorded: Liver left lobe mottled with dark edges, median lobe dark and mottled (left side darker)

Compound: C[C@H]1C(=O)O[C@@H]2CCN3CC=C(COC(=O)[C@](C)(O)[C@]1(C)O)[C@H]23 [Monocrotaline]
- Primary site of livery injury [1]: Centrilobular
- Clin/Ob Prior to Necropsy [2, 12]: normal
- Gross Findings [2, 12]: No Gross Findings
- Clin/Ob Prior to Necropsy [2, 13]: normal
- Final Body Wt. [2, 13]: 224.70 g and 231.10 g and 243.30 g and 240.90 g
- Gross Findings [2, 13]: No Gross Findings; also recorded: Liver - Herniated diaphragmatic nodule
- Clin/Ob Prior to Necropsy [2, 14]: normal
- Final Body Wt. [2, 14]: 241.60 g and 239.40 g and 266.80 g and 243.40 g
- Gross Findings [2, 14]: Liver median lobe dark area 1x1x1 mm; also recorded: Liver median lobe red area 2x2x2 mm; also recorded: No Gross Findings; also recorded: Liver median lobe right side with red area 2x1x1 mm
- Clin/Ob Prior to Necropsy [2, 15]: Piloerection
- Final Body Wt. [2, 15]: 224.70 g and 224.00 g and 229.60 g and 222.60 g
- Gross Findings [2, 15]: Liver left lobe dark and mottled with rough surface, median lobe dark and mottled; also recorded: Liver left and median lobes dark; also recorded: Liver left lobe dark and mottled, median lobe dark; kidney dark
- Clin/Ob Prior to Necropsy [2, 16]: normal
- Gross Findings [2, 16]: No Gross Findings
- Clin/Ob Prior to Necropsy [2, 17]: normal
- Final Body Wt. [2, 17]: 223.50 g and 226.80 g and 245.00 g and 241.70 g
- Gross Findings [2, 17]: Liver left lobe mottled, median lobe mottled with minimal roughening of surface; also recorded: No Gross Findings; also recorded: Liver median lobe with dark area 2x2x2 mm
- Clin/Ob Prior to Necropsy [2, 18]: normal
- Final Body Wt. [2, 18]: 231.90 g and 232.10 g and 240.80 g and 232.90 g
- Gross Findings [2, 18]: Liver left lobe with red area 10x2x2 mm, median lobe dark and mottled; also recorded: Liver left lobe firm, median lobe left side, ventral surface dark, dorsal surface with red area 2x2x2 mm, right side mottled and firm; also recorded: Liver median lobe right and left side with dark lower edges, dorsal surface mottled; also recorded: Liver median lobe with dark edges, right side dark and mottled, dorsal surface dark and mottled with mild roughening of surface
- Clin/Ob Prior to Necropsy [2, 19]: normal
- Gross Findings [2, 19]: No Gross Findings; also recorded: Liver, median lobe tan; also recorded: Liver, left lobe mottled, median lobe dark on edges, patchy 2x2x3 mm; also recorded: Liver left and median lobes mottled
